Patent publication US12709733B2, “Cell culture media” (Merck Patent GmbH, priority 2019, dated 2026)
In brackets after ≈: the same amount, converted by molar mass. Blank lines part the entries; values can stand above or below the molecule they belong to.

How the values were obtained:
[1] = Maximum solubility in water at 25° C. (saturated solution, residual mass after infrared drying); format: physicochemical; details: for Solubility 25° C. in g/kg (corresponding Lac-AA) / Solubility 25° C. in g/kg (amino acid) / increase in solubility compared to the respective amino acid: water; for Solubility 25° C. in g/kg (corresponding Lac-AA): Lac-AA sodium salt; for Solubility 25° C. in g/kg (amino acid): native amino acid; for Solubility 25° C. in g/kg (corresponding Lac-AA) / Solubility 25° C. in g/kg (amino acid) / increase in solubility compared to the respective amino acid / solubility: 25° C.; for solubility: stated in description; for maximum solubilities obtained in water: separate experiments comparing Leu, Leu sodium salt and lac-Leu sodium salt
Protocol: After sedimentation, the solution was dried using infrared (120° C., 120 min) and the residual mass was determined in g/kg.

[2] = Maximum solubility in Cellvento 4Feed depleted in Ile and Leu (turbidity measurement); format: physicochemical; details: for times more soluble than the native amino acid in Cellvento 4Feed depleted in Ile/Leu / solubility at 10 min: 113 g/L feed; for times more soluble than the native amino acid in Cellvento 4Feed depleted in Ile/Leu: pH 7.0+/-0.2; for solubility at 10 min: aqueous with cosolvent or surfactant or cyclodextrin, thermodynamic from solid, pH 7.0+/-0.2, 25° C., soluble = turbidity below 5 NTU
Protocol: Increasing amounts of the Lac-Leu and Lac-Ile and salts thereof were added to a cell culture feed formulation (Cellvento® 4Feed) depleted in Ile and Leu. Similarly, increasing amounts of Ile and Leu were added to the same feed formulation as a control. The total concentration of this feed formulation was 113 g/L and the pH was 7.0+/−0.2. In small scale experiments, after each addition of either the amino acid or the Lac-AA, the feed was agitated for 10 mins and turbidity was measured. The experiments were performed at room temperature (25° C.).
A solution having a turbidity below 5 NTU is considered soluble.

[3] = Stability of Lac-AA in Cellvento 4Feed-Ile/Leu by LC-MS; format: physicochemical; details: stored up to 3 months at 4° C. or RT protected from light
Protocol: To monitor the stability of Lac-AA in the complex feed mixture, a targeted quantitative LC-MS method was developed. Serial dilutions of Lac-Leu and Lac-Ile in Cellvento® 4Feed—Ile/Leu pH 7.0 were performed from 100 mM to 100 μM to determine the linearity of the method. A 200-fold dilution in water was performed prior to LC-MS analysis. The method was developed on a UHPLC (Vanquish, Thermo Fisher) coupled with an ESI-Q-ToF mass spectrometer (Impact II, Bruker Daltonics).
Briefly, 1 μL of sample were loaded in 99.9% buffer A (20 mM ammonium formate/0.1% FA) onto a XSelect HSS T3 column (2.1×150 mm, 3.5 μm, Waters) thermostated at 40° C. with a flowrate of 300 μL/min and eluted with a multistep gradient of buffer B (100% methanol) presented in Table 2.
LC-MS analyses were performed using the Impact II mass spectrometer equipped with an ESI source (Bruker Daltonics). MS acquisition was performed in negative mode with end plate offset and capillary voltages set at 500 and 3500 V, respectively. Nebulizer and dry gas (250° C.) were set at 1.4 bar and 9.0 L/min, respectively. MS spectra were acquired over the m/z range 20-1000 with a scan rate of 5 Hz. […]
Using the method previously developed, the stability of Lac-Ile and Lac-Leu in Cellvento® 4Feed-Ile/Leu was monitored in samples stored at 4° C. and RT protected from light for 3 months.

[4] = system: CHOK1GS suspension cell line expressing a human IgG1; experiment: Fed-batch cell culture with Lac-AA replacing the amino acid in the feed, CHOK1GS clone; format: cell-based; details: for concentration of Ile in the spent medium / concentration of Leu in the spent medium / effect on viable cell density (VCD) compared to positive control: 17-days fed-batch; for effect on viable cell density (VCD) compared to positive control: Lac-AA replacing amino acid in feed; for IgG titer compared to control: day 14; for increase of free lactate (area under the curve of lactate concentration): supernatant over the fed-batch process
Protocol: For cell culture experiments, a CHOK1GS suspension cell line expressing a human IgG1, was used. Cells were cultivated in quadruplicate in Cellvento® 4CHO medium (Merck Darmstadt, Germany) using 50 mL spin tubes with a starting culture volume of 30 mL and a seeding density of 2×10^5 cells/mL.
Incubation was carried out at 37° C., 5% CO2, 80% humidity and an agitation of 320 rpm. The Lac-AA were added in the Feed (Cellvento® 4Feed depleted in Ile and leu) instead of their respective amino acids. The pH of all the feeds was neutral (pH 7.0+/−0.2). The positive control contained the normal amino acids whereas the negative control contained the feed depleted in the respective amino acid and without addition of Lac-AA. Feeding was carried out at days 3, 5, 7, 10, 12 and 14 at the following v/v ratios (3, 3, 6, 3, 3 and 3%). Glucose was quantified daily and adjusted to 6 g/L using a 400 g/L glucose solution. The experiment was repeated at least 3 times.
The viable cell density (VCD) and viability were evaluated with a Vi-CELL XR (Beckman Coulter, Fullerton, CA). Metabolite concentrations were monitored using a Cedex Bio HT (Roche Diagnostics, Mannheim, Germany) based on spectrophotometric and turbidometric methods. Quantification of amino acids was carried out via UPLC after derivatization with the AccQ·TagUltra® reagent kit. Derivatization, chromatography and data analysis were carried out following the supplier recommendations (Waters, Milford, MA).

[5] = system: CHOK1GS suspension cell line expressing a human IgG1; experiment: Quality of the antibody produced in the fed-batch process (glycosylation, aggregation/fragmentation, charge variants); format: cell-based; details: IgG1 purified from supernatant
Protocol: The quality of the antibody produced in the control fed-batch process (with feed containing Ile and Leu) was compared to the quality of the antibody produced with feed depleted in either Leu and Ile and supplemented with either Lac-Leu or Lac-Ile.
The antibody was purified from the cell culture supernatant using protein A PhyTips® (PhyNexus Inc, San Jose, CA). Glycosylation patterns were analyzed by capillary gel electrophoresis with laser-induced fluorescence (CGE-LIF) after derivatization using the GlykoPrep®-plus Rapid N-Glycan Sample Preparation kit with 8-aminopyrene-1,3,6-trisulfonic acid trisodium (APTS) (Prozyme, Hayward, CA) according to the manufacturer's instructions. […] After a cleaning step to remove the remaining APTS, the relative amounts of glycans were determined using the Pharmaceutical Analysis System CESI8000 Plus (Sciex, Washington, USA) with a LIF detector (Ex: 488 nm, Em: 520 nm). […]
Antibody aggregation and fragmentation were measured using size exclusion chromatography on an Water Acquity UPLC system using a TSKgel SuperSW3000 column (Tosoh Bioscience). […] The sample concentration was adjusted to 1.0 mg/mL after the IgG purification using the storage buffer and the detection was performed using the absorbance at 214 nm. […]

[6] = system: CHODG44 clone producing an IgG1; experiment: Fed-batch experiments with a CHODG44 clone; format: cell-based
Source text: Results (FIG. 16, 17, 18) indicate a similar VCD and IgG titer for the Lac-Leu and Lac-Ile conditions compared to the control positive control. […] The explanation for this difference in behavior between CHOK1GS cells and this DG44 cell line is currently unknown. The Leu and Ile concentrations in the spent media (FIG. 19 and) decreased during the first day of the FB culture to finally increase again after D7. This behavior is similar to the behavior seen for CHOK1GS cells and indicate a slow release process of the free AA from the derivatives.

Compound: CC(O)C(=O)NC(Cc1ccc(O)cc1)C(=O)[O-].[Na+] (stereo not drawn) [Lac-Tyr sodium salt]
- Solubility 25° C. in g/kg (corresponding Lac-AA) [1]: 101.9 g/kg

Compound: CSCC[C@H](N)C(=O)O [Methionine]
- Solubility 25° C. in g/kg (amino acid) [1]: 52.9 g/kg

Compound: CC[C@H](C)[C@H](NC(=O)C(C)O)C(=O)O (stereo partly drawn) [Lac-Ile, N-lactoyl isoleucine]
- increase in solubility compared to the respective amino acid [1]: 20 fold
- turbidity at maximum tested concentration ([2]; 951 mM in Cellvento 4Feed depleted in Ile/Leu): below 5 NTU
- times more soluble than the native amino acid in Cellvento 4Feed depleted in Ile/Leu [2]: at least 9 times
- solubility at 10 min [2]: ≥ 951 mM
- stability in Cellvento 4Feed-Ile/Leu [3]: stable
- concentration of Ile in the spent medium [4]: decreased very rapidly until day 7 and increased again afterwards
- concentration of Leu in the spent medium [4]: moderately decreased
- effect on viable cell density (VCD) compared to positive control [4]: no effect on the peak VCD or overall VCD profile
- IgG titer compared to control [4]: slight, but not significant higher titer
- increase of free lactate (area under the curve of lactate concentration) [4]: 37%
- glycosylation, high and low molecular weight species and charge variants of the IgG1 versus control condition [5]: no difference
- IgG titer compared to positive control [6]: similar
- VCD compared to positive control [6]: similar

Compound: N[C@@H](Cc1ccccc1)C(=O)O [Phenylalanine]
- Solubility 25° C. in g/kg (amino acid) [1]: 26.0 g/kg

Compound: CC(C)C[C@H](N)C(=O)[O-].[Na+] [Leu sodium salt]
- maximum solubilities obtained in water [1]: 86.0 g/kg

Compound: CC(O)C(=O)NC(Cc1ccccc1)C(=O)[O-].[Na+] (stereo not drawn) [Lac-Phe sodium salt]
- Solubility 25° C. in g/kg (corresponding Lac-AA) [1]: 483.1 g/kg

Compound: CC(C)C[C@H](NC(=O)C(C)O)C(=O)O (stereo partly drawn) [Lac-Leu, N-lactoyl leucine]
- increase in solubility compared to the respective amino acid [1]: around 30 fold
- times more soluble than the native amino acid in Cellvento 4Feed depleted in Ile/Leu [2]: 6.6 times
- solubility at 10 min [2]: ~600 mM (≈ 122 mg/mL)
- stability in Cellvento 4Feed-Ile/Leu [3]: stable
- concentration of Ile in the spent medium [4]: decreased after day 7
- concentration of Leu in the spent medium [4]: decreased very rapidly until day 7 and increased again afterwards
- effect on viable cell density (VCD) compared to positive control [4]: positive effect on the duration of the plateau phase
- viable cell density in plateau phase ([4]; day 10 to day 14): ~15 million cells/mL
- IgG titer compared to control [4]: slight, but not significant higher titer
- increase of free lactate (area under the curve of lactate concentration) [4]: 20%
- glycosylation, high and low molecular weight species and charge variants of the IgG1 versus control condition [5]: no difference
- IgG titer compared to positive control [6]: similar
- VCD compared to positive control [6]: similar

Results, then the molecule that gave them:

- solubility [1]: 32.4 g/kg
- Solubility 25° C. in g/kg (amino acid) [1]: 32.4 g/kg
- solubility at 10 min [2]: ~105 mM (≈ 13.8 mg/mL)
Compound: CC[C@H](C)[C@H](N)C(=O)O [Isoleucine]

- Solubility 25° C. in g/kg (amino acid) [1]: 57.8 g/kg
Compound: CC(C)[C@H](N)C(=O)O [Valine]

- solubility [1]: about 22.1 g/kg
- maximum solubilities obtained in water [1]: 22.1 g/kg
- Solubility 25° C. in g/kg (amino acid) [1]: 22.1 g/kg
- solubility at 10 min [2]: ~90 mM (≈ 11.8 mg/mL)
Compound: CC(C)C[C@H](N)C(=O)O [Leucine]
